Assay results as given in patent US7338950B2, “Amide compounds as ion channel ligands and uses thereof” (Renovis, Inc., priority 2003, dated 2008).
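Note: Fura2 ratiometric fluorescence read every 4 s over 3 min, response taken as peak ratio minus baseline before pre-treatment, compound pre-treatment preceding acid challenge.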

The compounds below were run on VR1 receptor (293 cells expressing capsaicin-insensitive VR1 receptor variants) (assay: High throughput screening of VR1 antagonists using a calcium imaging assay (Fura2, pH 5.1 stimulus)). Details: 1 uM compound; inhibition of calcium ion influx.
Source text: A dual wavelength ratiometric dye, Fura2, was used as an indicator of relative levels of calcium ions in a 96 well format using a bench top scanning fluorometer with integrated fluidics and temperature control (Flex Station, Molecular Devices).
A dual wavelength ratiometric dye, Fura2, was used as an indicator of relative levels of [Ca2+] in a 96 well format using a bench top scanning fluorometer with integrated fluidics and temperature control (Flex Station, Molecular Devices).
293 cells were grown on PDL coated 96-well black-walled plates, in the presence of a DMEM medium containing 5% Penstrep, 5% Glutamax, 200 ug/mL Hygromycin, 5 μg/mL Blasticide and 10% heat inactivated FBS. Prior to assay, the cells were loaded with 5 μg/mL Fura2 in normal saline solution at 37° C. for 40 minutes. Cells were then washed with normal saline to remove the dye.
The assay consists of two stages; a pre-treatment phase followed by a treatment phase.
50 μl of a compound solution was added to the cells (Pre-treatment). Immediately following, 50 μl of the test compound in a saline solution at pH 5.1 was added. […] Changes in wavelength measurements were made throughout the course of the experiment in 4 second intervals over a period of 3 minutes. Responses were measured as peak fluorescence ratio after test compound addition minus baseline fluorescence ratio prior to pre-treatment and were calculated using SoftMaxPro softwareData were expressed as percentage inhibition calculated using Excel as follows:
With COc1ccccc1NC(=O)c1ccc(-c2ncccc2Cl)c(OC)c1 [Compound 1211] the “% Inhibition @ 1 uM” value was “++ (compound exhibited 25-50% inhibition of calcium ion influx induced by capsaicin stimulation)”.
For CCCc1ccccc1NC(=O)c1ccc(-c2ncccc2Cl)c(OC)c1 [Compound 1212], the “% Inhibition @ 1 uM” value was “++ (compound exhibited 25-50% inhibition of calcium ion influx induced by capsaicin stimulation)”.
In the case of COc1cccc(NC(=O)c2ccc(-c3ncccc3Cl)c(OC)c2)c1 [Compound 1213], the “% Inhibition @ 1 uM” value is reported as “++ (compound exhibited 25-50% inhibition of calcium ion influx induced by capsaicin stimulation)”.
COc1cc(C(=O)Nc2cccc(Cl)c2Cl)ccc1-c1ncccc1Cl [Compound 1216] was tested, and the “% Inhibition @ 1 uM” value was “++++ (compound exhibited 75% or greater inhibition of calcium ion influx induced by capsaicin stimulation)”.
COc1cc(C(=O)Nc2cccc(C#N)c2)ccc1-c1ncccc1Cl [Compound 1218] was tested, and the “% Inhibition @ 1 uM” value was “++++ (compound exhibited 75% or greater inhibition of calcium ion influx induced by capsaicin stimulation)”.
With CCCCc1ccc(NC(=O)c2ccc(-c3ncccc3Cl)c(OC)c2)cc1 [Compound 1221] the “% Inhibition @ 1 uM” value was “++ (compound exhibited 25-50% inhibition of calcium ion influx induced by capsaicin stimulation)”.
With COc1cc(C(=O)Nc2ccc(C)cc2C)ccc1-c1ncccc1Cl [Compound 1223] the “% Inhibition @ 1 uM” value was “++++ (compound exhibited 75% or greater inhibition of calcium ion influx induced by capsaicin stimulation)”.
COc1cc(C(=O)Nc2ccc(F)cc2[N+](=O)[O-])ccc1-c1ncccc1Cl [Compound 1227] was tested, and the “% Inhibition @ 1 uM” value was “++++ (compound exhibited 75% or greater inhibition of calcium ion influx induced by capsaicin stimulation)”.
With COc1ccc(NC(=O)c2ccc(-c3ncccc3Cl)c(OC)c2)cc1Cl [Compound 1229] the “% Inhibition @ 1 uM” value was “+++ (compound exhibited 50-75% inhibition of calcium ion influx induced by capsaicin stimulation)”.
With COc1cc(C(=O)Nc2ccc(C(F)(F)F)cc2)ccc1-c1ncccc1Cl [Compound 1230] the “% Inhibition @ 1 uM” value was “++ (compound exhibited 25-50% inhibition of calcium ion influx induced by capsaicin stimulation)”.
COc1cc(C(=O)Nc2ccc(Cl)c(C(F)(F)F)c2)ccc1-c1ncccc1Cl [Compound 1231] was tested, and the “% Inhibition @ 1 uM” value was “+ (compound exhibited 0-25% inhibition of calcium ion influx induced by capsaicin stimulation)”.
COc1cc(C(=O)Nc2cc(C)cc(C)n2)ccc1-c1ncccc1Cl [Compound 1234] was tested, and the “% Inhibition @ 1 uM” value was “+ (compound exhibited 0-25% inhibition of calcium ion influx induced by capsaicin stimulation)”.
For COc1cc(C(=O)Nc2ccncc2)ccc1-c1ncccc1Cl [Compound 1235], the “% Inhibition @ 1 uM” value was “++++ (compound exhibited 75% or greater inhibition of calcium ion influx induced by capsaicin stimulation)”.
In the case of COc1cc(C(=O)Nc2cccnc2)ccc1-c1ncccc1Cl [Compound 1236], the “% Inhibition @ 1 uM” value is reported as “+ (compound exhibited 0-25% inhibition of calcium ion influx induced by capsaicin stimulation)”.
COc1cc(C(=O)Nc2cc(C)ccn2)ccc1-c1ncccc1Cl [Compound 1240] was tested, and the “% Inhibition @ 1 uM” value was “++++ (compound exhibited 75% or greater inhibition of calcium ion influx induced by capsaicin stimulation)”.
With COc1cc(C(=O)Nc2ccncn2)ccc1-c1ncccc1Cl [Compound 1242] the “% Inhibition @ 1 uM” value was “++ (compound exhibited 25-50% inhibition of calcium ion influx induced by capsaicin stimulation)”.
For COc1cc(C(=O)Nc2ccc(Br)cn2)ccc1-c1ncccc1Cl [Compound 1243], the “% Inhibition @ 1 uM” value was “+ (compound exhibited 0-25% inhibition of calcium ion influx induced by capsaicin stimulation)”.
For COc1ccc(NC(=O)c2ccc(-c3ncccc3Cl)c(OC)c2)cn1 [Compound 1247], the “% Inhibition @ 1 uM” value was “++ (compound exhibited 25-50% inhibition of calcium ion influx induced by capsaicin stimulation)”.
With COc1cc(C(=O)Nc2ccnc(Cl)c2)ccc1-c1ncccc1Cl [Compound 1248] the “% Inhibition @ 1 uM” value was “+ (compound exhibited 0-25% inhibition of calcium ion influx induced by capsaicin stimulation)”.
COc1cc(C(=O)Nc2cc(C)nc(C)n2)ccc1-c1ncccc1Cl [Compound 1249] was tested, and the “% Inhibition @ 1 uM” value was “+ (compound exhibited 0-25% inhibition of calcium ion influx induced by capsaicin stimulation)”.
For COc1cc(C(=O)Nc2ccc3ncccc3c2)ccc1-c1ncccc1Cl [Compound 1250], the “% Inhibition @ 1 uM” value was “++++ (compound exhibited 75% or greater inhibition of calcium ion influx induced by capsaicin stimulation)”.
CCn1c2ccccc2c2cc(NC(=O)c3ccc(-c4ccccc4Cl)c(OC)c3)ccc21 [Compound 1251] was tested, and the “% Inhibition @ 1 uM” value was “+ (compound exhibited 0-25% inhibition of calcium ion influx induced by capsaicin stimulation)”.
With COc1cc(C(=O)Nc2nccs2)ccc1-c1ncccc1Cl [Compound 1252] the “% Inhibition @ 1 uM” value was “+ (compound exhibited 0-25% inhibition of calcium ion influx induced by capsaicin stimulation)”.
In the case of COc1cc(C(=O)Nc2ccc3ccccc3c2)ccc1-c1ncccc1Cl [Compound 1253], the “% Inhibition @ 1 uM” value is reported as “++++ (compound exhibited 75% or greater inhibition of calcium ion influx induced by capsaicin stimulation)”.
With COc1ccc(NC(=O)c2ccc(-c3ncccc3Cl)c(OC)c2)cc1OC [Compound 1257] the “% Inhibition @ 1 uM” value was “+ (compound exhibited 0-25% inhibition of calcium ion influx induced by capsaicin stimulation)”.
With COc1cc(C(=O)Nc2cccc(C(=O)O)c2)ccc1-c1ncccc1Cl [Compound 1258] the “% Inhibition @ 1 uM” value was “+ (compound exhibited 0-25% inhibition of calcium ion influx induced by capsaicin stimulation)”.
With COc1cc(C(=O)Nc2ccc(Cl)c(C(=O)O)c2)ccc1-c1ncccc1Cl [Compound 1259] the “% Inhibition @ 1 uM” value was “++++ (compound exhibited 75% or greater inhibition of calcium ion influx induced by capsaicin stimulation)”.
For COc1cc(C(=O)Nc2cc(OC)c(OC)c(OC)c2)ccc1-c1ncccc1Cl [Compound 1263], the “% Inhibition @ 1 uM” value was “++++ (compound exhibited 75% or greater inhibition of calcium ion influx induced by capsaicin stimulation)”.
For COc1cc(C(=O)Nc2ccc3cn[nH]c3c2)ccc1-c1ncccc1Cl [Compound 1264], the “% Inhibition @ 1 uM” value was “++ (compound exhibited 25-50% inhibition of calcium ion influx induced by capsaicin stimulation)”.
With COc1cc(C(=O)Nc2ccc(C#N)c(Cl)c2)ccc1-c1ncccc1Cl [Compound 1265] the “% Inhibition @ 1 uM” value was “++++ (compound exhibited 75% or greater inhibition of calcium ion influx induced by capsaicin stimulation)”.
COc1cc(C(=O)Nc2cccc(C(F)(F)F)c2)ccc1-c1ncccc1Cl [Compound 1267] was tested, and the “% Inhibition @ 1 uM” value was “++ (compound exhibited 25-50% inhibition of calcium ion influx induced by capsaicin stimulation)”.
COc1cc(C(=O)Nc2cccc(OC(F)(F)F)c2)ccc1-c1ncccc1Cl [Compound 1269] was tested, and the “% Inhibition @ 1 uM” value was “+ (compound exhibited 0-25% inhibition of calcium ion influx induced by capsaicin stimulation)”.
With COc1cc(C(=O)Nc2cccc(OC(C)C)c2)ccc1-c1ncccc1Cl [Compound 1270] the “% Inhibition @ 1 uM” value was “+ (compound exhibited 0-25% inhibition of calcium ion influx induced by capsaicin stimulation)”.
With COc1cc(C(=O)Nc2ccc(F)c(F)c2)ccc1-c1ncccc1Cl [Compound 1271] the “% Inhibition @ 1 uM” value was “+++ (compound exhibited 50-75% inhibition of calcium ion influx induced by capsaicin stimulation)”.
CCOc1ccc(NC(=O)c2ccc(-c3ncccc3Cl)c(OC)c2)cc1 [Compound 1273] was tested, and the “% Inhibition @ 1 uM” value was “+ (compound exhibited 0-25% inhibition of calcium ion influx induced by capsaicin stimulation)”.
With COc1cc(C(=O)Nc2ccc(OC)c(C(F)(F)F)c2)ccc1-c1ncccc1Cl [Compound 1275] the “% Inhibition @ 1 uM” value was “++ (compound exhibited 25-50% inhibition of calcium ion influx induced by capsaicin stimulation)”.
In the case of COc1cc(C(=O)Nc2ccc(N3CCOCC3)c(Cl)c2)ccc1-c1ncccc1Cl [Compound 1276], the “% Inhibition @ 1 uM” value is reported as “+ (compound exhibited 0-25% inhibition of calcium ion influx induced by capsaicin stimulation)”.
With COc1cc(C(=O)Nc2ccc(-c3cnco3)cc2)ccc1-c1ncccc1Cl [Compound 1277] the “% Inhibition @ 1 uM” value was “+++ (compound exhibited 50-75% inhibition of calcium ion influx induced by capsaicin stimulation)”.
COc1cc(C(=O)Nc2ccc(Cl)cc2S(=O)(=O)O)ccc1-c1ncccc1Cl [Compound 1278] was tested, and the “% Inhibition @ 1 uM” value was “+ (compound exhibited 0-25% inhibition of calcium ion influx induced by capsaicin stimulation)”.
CCN(CC)CCOC(=O)c1ccc(NC(=O)c2ccc(-c3ncccc3Cl)cc2)cc1 [Compound 1282] was tested, and the “% Inhibition @ 1 uM” value was “+ (compound exhibited 0-25% inhibition of calcium ion influx induced by capsaicin stimulation)”.
For CCOC(=O)c1cccc(NC(=O)c2ccc(-c3ncccc3Cl)cc2)c1 [Compound 1286], the “% Inhibition @ 1 uM” value was “+ (compound exhibited 0-25% inhibition of calcium ion influx induced by capsaicin stimulation)”.
In the case of COc1ccc(NC(=O)c2ccc(-c3ncccc3Cl)cc2)cc1O [Compound 1288], the “% Inhibition @ 1 uM” value is reported as “+ (compound exhibited 0-25% inhibition of calcium ion influx induced by capsaicin stimulation)”.
For O=C(Nc1ccc2cn[nH]c2c1)c1ccc(-c2ncccc2Cl)cc1 [Compound 1290], the “% Inhibition @ 1 uM” value was “++ (compound exhibited 25-50% inhibition of calcium ion influx induced by capsaicin stimulation)”.
CCCOc1ccc(NC(=O)c2ccc(-c3ncccc3Cl)cc2)cc1 [Compound 1291] was tested, and the “% Inhibition @ 1 uM” value was “+ (compound exhibited 0-25% inhibition of calcium ion influx induced by capsaicin stimulation)”.
O=C(Nc1ccc(OC(F)(F)F)cc1)c1ccc(-c2ncccc2Cl)cc1 [Compound 1293] was tested, and the “% Inhibition @ 1 uM” value was “+ (compound exhibited 0-25% inhibition of calcium ion influx induced by capsaicin stimulation)”.
In the case of O=C(Nc1cccc(OC(F)(F)F)c1)c1ccc(-c2ncccc2Cl)cc1 [Compound 1294], the “% Inhibition @ 1 uM” value is reported as “+ (compound exhibited 0-25% inhibition of calcium ion influx induced by capsaicin stimulation)”.
CC(C)Oc1cccc(NC(=O)c2ccc(-c3ncccc3Cl)cc2)c1 [Compound 1295] was tested, and the “% Inhibition @ 1 uM” value was “+ (compound exhibited 0-25% inhibition of calcium ion influx induced by capsaicin stimulation)”.
For O=C(Nc1ccc(F)c(F)c1)c1ccc(-c2ncccc2Cl)cc1 [Compound 1296], the “% Inhibition @ 1 uM” value was “+ (compound exhibited 0-25% inhibition of calcium ion influx induced by capsaicin stimulation)”.
In the case of CCOc1ccc(NC(=O)c2ccc(-c3ncccc3Cl)cc2)cc1 [Compound 1298], the “% Inhibition @ 1 uM” value is reported as “+ (compound exhibited 0-25% inhibition of calcium ion influx induced by capsaicin stimulation)”.
For O=C(Nc1ccc(N2CCOCC2)c(Cl)c1)c1ccc(-c2ncccc2Cl)cc1 [Compound 1301], the “% Inhibition @ 1 uM” value was “+++ (compound exhibited 50-75% inhibition of calcium ion influx induced by capsaicin stimulation)”.
